Patent US20250228833A1, “METHODS AND COMPOSITIONS FOR TREATING AGITATION” (BioXcel Therapeutics, Inc., priority 2021, published 2025)
Where a name gives a salt, the structure may show the parent alone.

Legend:
[1] = tested on: yohimbine-induced noradrenergic mediated hyperarousal; assay: Elevated plus maze, yohimbine-induced hyperarousal (Example 2); type: in vivo, Wistar rats; conditions: for reduction of noradrenergic mediated hyperarousal: 10 mg/kg i.m. pretreatment, yohimbine 2.5 mg/kg i.p.; for exploration time (time spent in the open arms) / number of open arm entries: 60 min prior to EPM, yohimbine 2.5 mg/kg i.p. 30 min prior, 5 min period
Source text: Background: Yohimbine is an alpha 2-adrenergic receptor antagonist reported to trigger panic attacks in healthy volunteers and to exacerbate symptoms in patients with panic disorder (Charney et al., 1992 Acta Psychiatr Scand., Vol. 86 (4): 273-282). Peripheral administration of Yohimbine causes noradrenergic mediated hyperarousal in rats as assessed by the EPM paradigm.
Rationale: The drug yohimbine is a natural product used to test a specific pathway, noradrenergic-mediated hyper-arousal. It is well established that yohimbine is an alpha2-adrenergic receptor antagonist and activates the locus coeruleus (LC) and increases noradrenergic signaling (the opposite of alpha2-adrenergic agonists like dexmedetomidine and clonidine). Increased LC activity and noradrenergic signaling makes animals anxious and agitated which can be measured by using the elevated plus maze. In the elevated plus maze, rodents were in the closed arms and explored the open arms depending on their anxiety and agitation (rats and mice normally explore their environments extensively when calm).
Animal groups: Male: Wistar rats were used in this study and were randomly divided to different experimental groups (12 animals per group).
The test drugs were procured from Sigma or Tocris. dextromethorphan from Sigma Aldrich, Cat No. D9684; latrepirdine from Sigma Aldrich, Cat No. D6196 or Tocris Cat No. 3201 diazepam and fluvoxamine Sigma Aldrich, Cat No. F2802 or Tocris, Cat No. 1033. All these test drugs were formulated in sufficient quantity in 0.9% saline except for Fluvoxamine, which was formulated in 30% ethanol in 0.9% saline.
Apparatus: Elevated Plus Maze (EPM) was used (FIG. 1). The maze consisted of two closed arms and two open arms forming a cross, with a square center platform. All visible surfaces were made of black acrylic. Each arm of the maze was placed on a support column above the floor. Antistatic black vinyl curtains used for surrounding the EPM to make an enclosure.
Study Design and Dosing: Yohimbine was administered by intraperitoneal injection (i.p.) at a dose of 2.5 mg/kg (30 minutes prior to study) to induce agitation and the effects were assessed 30 minutes after yohimbine injection by measuring the number of open arm entries and exploration time in the EPM. The test drugs fluvoxamine, dextromethorphan and latrepirdine dihydrochloride hydrate were administered through intramuscular route and, diazepam through intraperitoneal route into the hindleg thigh muscle of rats (60 minutes prior to study; 30 minutes prior to yohimbine administration). Diazepam was injected 30 minutes intraperitonially prior to the assay i.e. along with yohimbine administration. The study design is illustrated in FIG. 2 and table 5.
After the test drug administration, the rat was placed on the platform opposite a closed arm. The number of entries and the time spent in each arm were recorded during a 5 min period. The animal was considered as entered in arm when it placed its four paws into the arm.
Statistical Analysis: Analysis of variance (ANOVA) was performed on the result data. Fisher's PLSD was used for pairwise comparisons and p value≤0.05 was considered significant.

[2] = tested on: yohimbine-induced noradrenergic hyperarousal; assay: Elevated plus maze, latrepirdine at different doses in yohimbine-induced hyperarousal (Example 3); type: in vivo, Wistar rats; conditions: for Percent increase as referred to the Vehicle level, Entries / Percent increase as referred to the Vehicle level, Time: yohimbine 2.5 mg/kg i.p. 30 min, 60 min
Description: Drug preparation: All compounds/drugs were prepared in normal saline (0.9% NaCl).
Yohimbine was prepared at a solution of 2.5 mg/mL which when injected i.p. at a dosage volume of 1 mL/kg results in a dose of 2.5 mg/kg. Diazepam was prepared at a solution of 1 mg/mL which when injected i.p. at a dosage volume of 1 mL/kg results in a dose of 1 mg/kg. Latrepirdine dihydrochloride hydrate was prepared at a solution of 7.5, 2.5, 0.75 and 0.25 mg/mL which when injected i.m. at a volume of 100 μL for a rat of 250 g results in doses of 3; 1; 0.3 and 0.1 mg/kg; respectively. Latrepirdine dihydrochloride hydrate was also prepared at […] which when administrated i.p. at a dosage volume of 1 mL/kg results in a dose of 3 mg/kg.
Male Wistar rats (Janvier; Le Genest St Isle-France) were used for the study. They were purchased at a body weight of 150 g and reached a body weight of about 220 g at the time of use. They were group-housed (3-4 rats per cage) and maintained in a room with controlled temperature (21-22° C.) and a reversed light-dark cycle (12 h/12 h; lights on: 17:30-05:30; lights off: 05:30-17:30) with food and water available ad libitum.
Rats were distributed in 9 different experimental groups with 12 rats per group as illustrated in Table 6. Each experimental group was also coded so that the experimenter became unaware of the true experimental group at the time EPM trial.
The rats were randomly assigned to one of the different experimental groups. Each animal was identified by its group name, cage number, series (day) of experiment, and a number (from 1 to 9) written with permanent ink on its tail. They were handled by an experimenter for about 3 min each day during 1 week prior to the day of EPM trial. The apparatus was a PVC maze covered with Plexiglas and subdivided into four equal exploratory arms (40×10 cm), which were all interconnected by a small platform (10×10 cm). The apparatus was placed 65 cm above the floor. Two arms were opened, and two others were closed with wall (high: 10 cm). After compound administration, rat was placed on the platform opposite a closed arm. The number of entries and the time spent in each arm were recorded during a 5 min period. The animal was considered as entered in an arm when it placed its four paws in the arm. The apparatus was cleaned between each animal using alcohol (70%). Urine and feces were removed from the maze. During the trials, animal handling and the visibility of the operator were minimized as much as possible.
Analysis of variance (ANOVA) was performed on the result data. Fisher's PLSD was used for pairwise comparisons and p value≤0.05 were considered significant. For the sake of comparison, the change in the EPM performance of Yohimbine rats was expressed as a percentage of increase/decrease as referred to the level recorded in the vehicle (set as 0% change). Therefore, for each of the EPM parameter, the following formula was used: [performance of a given group-performance of vehicle group]/[performance of vehicle group]×100

[3] = tested on: aggressive behavior; assay: Resident intruder task (Example 5); type: in vivo, Swiss albino mice; conditions: 10 mg/kg i.p., 60 min prior to trial; mean value
Description: Strain/Gender: Swiss albino/Male
Bilateral ovariectomy surgery was carried out in 3-4 weeks old female Swiss albino mice as per the standard methods (Alagwu and Nneli, 2005). Animals were anesthetized using Avertin (2,2,2-Tribromoethanol) at 250 mg/kg, i.p. and were laid down on the surgery table and fixed with adhesive plaster. A midline incision was made on the dorsal region below the rib and 1 cm lateral to the either side of midline, a small incision was made on fascia to isolate the adipose fat supporting the ovaries. By slowly pulling out the fat tissue, the ovary was identified and excised the following uterine horn ligation with silk sutures. Fascia was covered with sutures and similar procedure was repeated on the other side as well. Superficial skin layers were sutured and gentamicin (80 mg/kg, s.c.) was given as antibiotic and meloxicam (4 mg/kg, s.c.) as analgesic, then povidone iodine was applied on superficial skin layers. Polyethylene glycol (PEG) was applied to prevent drying of eye balls and kept for recovery period of 3 weeks (surgery was carried by a single experimenter). […]
Data obtained was compared with basal scoring by using Student's paired two tailed t-test. Duration of attack, and latency of attack between the groups was analyzed using One-Way ANOVA followed by Bonferroni's posthoc test. […]

[4] = tested on: depressive-like behavior; assay: Forced swim test in dark phase (Example 4)
Description: • Species: Rattus norvegicus • Strain: Sprague Dawley (SD) • Sex and Age: Male, 8-10 weeks old • Source: Hylasco Biotechnology Pvt.
Study was carried out as a staggered treatment, each treatment group divided as cohort 1, cohort 2 and cohort 3.
Swim 2 was carried out between 19:30 to 21:30. Animals were administered test compounds from 18:30 onwards in staggered manner 60 minutes before FST 2.
Forced Swim Test was carried out in Dark Phase
On Day 1, animals were subjected to forced swim test training for 15 minutes (Swim 1) and on Day 2, Swim 2 was carried out post treatment.
On day 2 animals were dosed with respective treatment 60 min prior to performing FST.
Forced swim test (Swim 2) was scored manually with no video recording
Forced swim test (FST), was used to study the depressive-like behavior in rodents. The test was carried out in transparent cylindrical glass containers measuring 46 cm in height and 20 cm in diameter.
The containers were filled with water (23-25° C.) to a depth of 30 cm.
There were 2 swim sessions, 24 h apart. The first session, Swim 1 was the pretest/training stage (15 min) and the second session, Swim 2, was the test stage (8 min).
In swim 2, first 1-minute data was excluded from analysis and rest 7 minutes data was considered. In 7 minutes, data, it was divided 5 minutes and 2 minute.
Rat was placed in the water-filled cylinder for 15 min (Swim 1). […]

[5] = tested on: spontaneous locomotor activity; assay: Open field test (Example 7); conditions: 60 min post dose, 30 minutes tracking, vs vehicle
Description: Test system: Mice Strain/Gender: Swiss albino/Male Study: Open field test
Open field test: The spontaneous locomotor activity in terms of total distance traveled is measured in open field test. Comparatively lower distance traveled would indicate either less motor activity or sedation.
Mice were brought to the laboratory and allowed to acclimatize to the environment for at least 7 days. The open field test was done in lighting conditions of 40 lux light. The mice were dosed as per the allocation. After a post dose interval of 60 minutes, 4 mice from a group were placed in the open field and the movement was tracked for a period of 30 minutes. Once the trial was over the mice were removed from the open field and the arena was cleaned. Following this, next set of 4 mice were placed in the arena and tracked.
The distance travelled for a period of 30 minutes was analyzed in bins of 5 minutes and was compared with that of the vehicle group using one-way ANOVA followed by Dunnett's test. All statistical analysis were performed using Graph pad prism software package (Version 7 or Higher) and p value below 0.05 was considered as significant.

SMILES: COc1ccc2c(c1)[C@]13CCCC[C@@H]1[C@H](C2)N(C)CC3 [dextromethorphan, Dextromethorphan]
- reduction of noradrenergic mediated hyperarousal [1]: ineffective
- exploration time (time spent in the open arms) ([1]; 10 mg/kg i.m.): no effect
- number of open arm entries ([1]; 10 mg/kg i.m.): no effect

SMILES: COCCCC/C(=N\OCCN)c1ccc(C(F)(F)F)cc1 [fluvoxamine, Fluvoxamine]
- reduction of noradrenergic mediated hyperarousal [1]: ineffective
- exploration time (time spent in the open arms) ([1]; 10 mg/kg i.m.): no effect
- number of open arm entries ([1]; 10 mg/kg i.m.): no effect

SMILES: COC(=O)[C@@H]1[C@H]2C[C@H]3c4[nH]c5ccccc5c4CCN3C[C@@H]2CC[C@@H]1O [yohimbine, Yohimbine]
- number of visits to and time spent into the open arms ([2]; 2.5 mg/kg i.p., vehicle-treated, compared to vehicle-treated saline rats): marked significant decrease

SMILES: Cc1ccc2c(c1)c1c(n2CCc2ccc(C)nc2)CCN(C)C1 [Latrepirdine dihydrochloride hydrate, 2,8-dimethyl-5-[2-(6-methylpyridin-3-yl)ethyl]-3,4-dihydro-1H-pyrido[4,3-b]indole]
- duration of attack [3]: 36.87 s
- Percent increase as referred to the Vehicle level, Entries ([2]; 1 mg/kg i.m.): significant
- Percent increase as referred to the Vehicle level, Time ([2]; 1 mg/kg i.m.): significant
- Percent increase as referred to the Vehicle level, Entries ([2]; 3 mg/kg i.m.): significant
- Percent increase as referred to the Vehicle level, Time ([2]; 3 mg/kg i.m.): significant
- number of visits to and time spent into the open arms, dose dependence ([2]; yohimbine administered rats, 0.1, 0.3, 1 and 3 mg/kg i.m.): dose-dependent increase
- EPM performance, i.m. compared with i.p. route ([2]; yohimbine rats, 3 mg/kg i.m. vs 3 mg/kg i.p.): comparable
- EPM performance of saline-treated rats ([2]; yohimbine-free rats, 3 mg/kg i.m.): did not significantly modify
- increase in swimming time as compared to vehicle saline ([4]; 1 mg/kg i.m.): 9.8%
- distance traveled ([5]; 1 mg/kg i.p.): did not show any significant reduction
- distance traveled ([5]; 3 mg/kg i.p.): did not show any significant reduction
- distance traveled ([5]; 10 mg/kg i.p.): did not show any significant reduction
- exploration time (time spent in the open arms) ([1]; 3 mg/kg i.m.): increased
- number of open arm entries ([1]; 3 mg/kg i.m.): significantly increased
- exploration time (time spent in the open arms) ([1]; 10 mg/kg i.m.): increased
- number of open arm entries ([1]; 10 mg/kg i.m.): significantly increased

SMILES: Cc1cccc([C@H](C)c2cnc[nH]2)c1C [Dexmedetomidine hydrochloride, (+) 4-(S)-[1-(2,3-dimethylphenyl)ethyl]-1H-imidazole]
- increase in swimming time as compared to vehicle saline ([4]; 1 μg/kg i.m.): ~1.6%
- distance traveled ([5]; 4 μg/kg i.p.): did not show any significant reduction
- distance traveled ([5]; 10 μg/kg i.p.): did not show any significant reduction
- distance traveled ([5]; 20 μg/kg i.p.): did not show any significant reduction
- distance traveled ([5]; 30 μg/kg i.p.): significant reduction
